Laboratory results taken from patent US20130338184A1, “2-AMINO-NAPHTHYRIDINE DERIVATIVES” (priority 2011, published 2013).

Assay: Metabolic stability in human liver S9 fractions
Type: in vitro ADME
Conditions: for % Δ of % parent remaining (relative to S): relative to Pagoclone (S); for % Δ of % parent remaining (relative to racemic): relative to Pagoclone (racemic)
Protocol: Materials: Human liver S9 (20 mg/mL) were obtained from Xenotech, LLC (Lenexa, Kans.). (3-nicotinamide adenine dinucleotide phosphate, reduced form (NADPH), magnesium chloride (MgCl2), and dimethyl sulfoxide (DMSO) were purchased from Sigma-Aldrich.
Determination of Metabolic Stability: 10 mM stock solutions of test compounds were prepared in DMSO. The 10 mM stock solutions were diluted to 0.1 mM or 1.0 mM in acetonitrile (ACN). The 20 mg/mL human liver […] were diluted to 2.5 mg/mL in 0.1 M potassium phosphate buffer, pH 7.4, containing 3 mM MgCl2 and incubated with alamethicin at 10 μg/mL for 15 minutes on ice. The diluted S9 were added to wells of a 96-well deep-well polypropylene plate in triplicate. 15 μL of the 0.1 mM or 1.0 mM test compound was added to the S9 and the mixture was pre-warmed for 10 minutes. Reactions were initiated by addition of pre-warmed NADPH solution. […] The reaction mixtures were incubated at 37° C., and 50 μL aliquots were removed at 0 and 60 minutes and added to shallow-well 96-well plates which contained 50 μL of ice-cold ACN with internal standard to stop the reactions. The plates were stored at 4° C. for 20 minutes after which 100 μL of water was added to the wells of the plate before centrifugation to pellet precipitated proteins. Supernatants were transferred to another 96-well plate and analyzed for amounts of parent remaining by LC-MS/MS using an Applied Bio-systems API 4000 mass spectrometer.
Data analysis: The in vitro tu2s for test compounds were calculated from the slopes of the linear regression of % parent remaining (1n) vs incubation time relationship.
k=−[slope of linear regression of % parent remaining(ln) vs incubation time]
Data analysis was performed using Microsoft Excel Software.

[1] = human liver S9 fractions, 1 μM tested compound
[2] = human liver S9 fractions, 10 μM tested compound

Row | Compound | % Parent remaining at 1 hr [1] [%] | % Parent remaining at 1 hr [2] [%] | % Δ of % parent remaining (relative to S) (1 μM tested compound) [%] | % Δ of % parent remaining (relative to racemic) (1 μM tested compound) [%] | % Δ of % parent remaining (relative to S) (10 μM tested compound) [%] | % Δ of % parent remaining (relative to racemic) (10 μM tested compound) [%] | metabolic stability compared to pagoclone and (S)-pagoclone (human liver S9 fractions, summary in words)
1 | CC(C)CCC(=O)CC1c2ccccc2C(=O)N1c1ccc2ccc(Cl)nc2n1 (racemic) [Pagoclone (racemic), 2-(7-chloro-1,8-naphthyridin-2-yl)-3-(5-methyl-2-oxohexyl)isoindolin-1-one, reference compound] | 37 ± 3.8 | 11 ± 1.2 | – | – | – | – | –
2 | [2H]C([2H])(C(=O)C([2H])([2H])C([2H])([2H])C([2H])(C([2H])([2H])[2H])C([2H])([2H])[2H])C1c2ccccc2C(=O)N1c1ccc2ccc(Cl)nc2n1 (racemic) [Rac-141, (+/−)-2-(7-Chloro-1,8-naphthyridin-2-yl)-3-(5-(d3-methyl)-2-oxo-1,1,3,3,4,4,5,6,6,6-d10-hexyl)isoindolin-1-one] | 60 ± 8.4 | 37 ± 2.7 | 46 | 62 | 61 | 236 | substantially greater metabolic stability
3 | CC(C)CCC(=O)CC1c2ccccc2C(=O)N1c1ccc2ccc(Cl)nc2n1 [Pagoclone (S), 2-(7-chloro-1,8-naphthyridin-2-yl)-3-(5-methyl-2-oxohexyl)isoindolin-1-one, reference compound] | 41 ± 1.0 | 23 ± 3.9 | – | – | – | – | –
